Source: US7960402B2, “Carbamoyl-substituted spiro derivative” (Banyu Pharmaceutical Co., Ltd., priority 2004, dated 2011)

Molecular target: T1, human histamine H3 receptor (Homo sapiens, UniProt Q9Y5N1)
T1 construct: expressed in transfected cells; host or cells: HEK293 and CHO-K1
Experiment: Test for Inhibition of Bonding of Histamine Analog
Assay type: binding
Conditions: for IC50: membrane specimen from histamine H3 receptor-expressed cells, [3H]N-α-methylhistamine, 25° C., 2 hours, read-out: 50% inhibition concentration (IC50 value) of the test compound to a specific N-alpha-methylhistamine bond; for inhibition of the bond of N-alpha-methylhistamine (histamine analog) to a histamine H3 receptor: summary in words of the IC50 results
Text: A cDNA sequence coding for human histamine H3 receptor [refer to WO 00/39164] was cloned to an expression vector pCR2.1, pEF1× (manufactured by Invitrogen) and pCI-neo (manufactured by Promega). The resulting expression vector was transfected to host cells HEK293 and CHO-K1 (American Type Culture Collection) by a cationic lipid method [refer to Proceedings of the National Academy of Sciences, the United States of America, volume 84, page 7413 (1987)] to give histamine H3 receptor-expressed cells.
A membrane specimen prepared from the cells where histamine H3 receptor was expressed was incubated at 25° C. for 2 hours in an assay buffer (50 mM Tris buffer, pH 7.4) together with a test compound (the compound of Example 1) and 20,000 cpm of [3H]N-α-methylhistamine (manufactured by NEN) and then filtered using a glass filter GF/C. After washing with a 50 mM Tris buffer of pH 7.4, radiation activity on the glass filter was determined. Non-specific bond was measured in the presence of a 10 μM thioperamide (manufactured by Sigam) to determine a 50% inhibition concentration (IC50 value) of the test compound to a specific N-alpha-methylhistamine bond [refer to Molecular Pharmacology, volume 55, page 1101 (1999)].

T1 sequence (Q9Y5N1 whole entry): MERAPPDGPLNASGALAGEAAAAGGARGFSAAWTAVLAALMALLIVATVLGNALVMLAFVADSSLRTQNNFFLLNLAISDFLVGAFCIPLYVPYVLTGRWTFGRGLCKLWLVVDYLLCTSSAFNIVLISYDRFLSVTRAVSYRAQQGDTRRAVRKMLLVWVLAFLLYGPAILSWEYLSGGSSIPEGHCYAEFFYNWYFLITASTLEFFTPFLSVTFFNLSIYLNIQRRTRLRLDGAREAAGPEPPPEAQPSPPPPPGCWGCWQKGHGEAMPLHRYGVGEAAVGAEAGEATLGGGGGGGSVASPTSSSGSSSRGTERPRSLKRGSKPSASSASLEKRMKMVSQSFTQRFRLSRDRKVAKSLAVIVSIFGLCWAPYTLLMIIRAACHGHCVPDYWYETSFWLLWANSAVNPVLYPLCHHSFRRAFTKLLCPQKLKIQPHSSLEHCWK

IC50 [pM]	inhibition of the bond of N-alpha-methylhistamine (histamine analog) to a histamine H3 receptor	Compound
80	strongly inhibited	CN(CCN1CCCCC1)C(=O)[C@H]1CC[C@@]2(CC1)OC(=O)c1cc(-c3ccccn3)ccc12 [Example 58, trans-5′-(Pyridin-2-yl)-3′-oxo-N-methyl-N-(2-piperidin-1-ylethyl)-spiro[cyclohexane-1,1′-(3′H)-isobenzofuran]-4-carboxamide]
670	strongly inhibited	CN(CCN1CCCCC1)C(=O)[C@H]1CC[C@@]2(CC1)OC(=O)c1cc(Oc3ccccn3)ccc12 [Example 68, trans-5′-(Pyridin-2-yloxy)-3′-oxo-N-methyl-N-(2-piperidin-1-ylethyl)-spiro[cyclohexane-1,1′-(3′H)-iso-benzofuran]-4-carboxamide]
4000	strongly inhibited	CN(CCN1CCCCC1)C(=O)[C@H]1CC[C@@]2(CC1)OC(=O)c1cc(F)ccc12.Cl [Example 10, trans-5′-fluoro-3′-oxo-N-methyl-N-(2-piperidin-1-ylethyl)-spiro[cyclohexane-1,1′-(3′H)-isobenzofuran]-4-carboxamide hydrochloride]
